Tests used:
human SCD1 = target: T1, human SCD1 (Homo sapiens, UniProt O00767); experiment: Yeast growth assay, strain expressing human SCD1 as the sole desaturase (reduced growth as surrogate for SCD inhibition); assay type: cell-based; details: growth (OD600) after 40 h at 30° C.
T1 construct: expressed in transfected cells; host or cells: yeast strain with the OLE1 gene deleted, carrying a plasmid (grown in SD-Ura)
T1 sequence (O00767 1-359): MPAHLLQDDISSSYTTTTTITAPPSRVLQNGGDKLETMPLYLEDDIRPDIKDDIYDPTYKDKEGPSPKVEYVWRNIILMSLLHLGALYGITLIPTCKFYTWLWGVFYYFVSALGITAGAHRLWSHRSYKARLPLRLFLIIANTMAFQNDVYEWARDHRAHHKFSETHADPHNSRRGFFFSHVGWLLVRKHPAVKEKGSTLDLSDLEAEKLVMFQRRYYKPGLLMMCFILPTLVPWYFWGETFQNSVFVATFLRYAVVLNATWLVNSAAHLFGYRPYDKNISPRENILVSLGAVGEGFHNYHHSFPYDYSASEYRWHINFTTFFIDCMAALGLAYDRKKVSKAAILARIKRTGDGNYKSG

human SCD5 = target: T2, human SCD5 (Homo sapiens, UniProt Q86SK9); experiment: Yeast growth assay, strain expressing human SCD5 as the sole desaturase (reduced growth as surrogate for SCD inhibition); assay type: cell-based; details: growth (OD600) after 40 h at 30° C.
T2 construct: expressed in transfected cells; host or cells: yeast strain with the OLE1 gene deleted, carrying a plasmid (grown in SD-Ura)
T2 sequence (Q86SK9 1-330): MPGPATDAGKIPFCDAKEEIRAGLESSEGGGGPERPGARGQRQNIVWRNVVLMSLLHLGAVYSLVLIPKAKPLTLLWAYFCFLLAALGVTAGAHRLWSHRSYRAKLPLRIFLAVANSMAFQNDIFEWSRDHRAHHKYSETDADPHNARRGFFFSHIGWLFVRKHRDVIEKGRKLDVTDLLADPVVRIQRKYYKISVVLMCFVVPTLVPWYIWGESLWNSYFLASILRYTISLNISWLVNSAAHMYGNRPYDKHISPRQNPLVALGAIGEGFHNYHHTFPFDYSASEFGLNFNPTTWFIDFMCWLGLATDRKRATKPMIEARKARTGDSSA

SMILES	IC50 (human SCD1)	IC50 (human SCD5)
CN1N=C(C(=O)Nc2ncc(Cc3cccc(F)c3)s2)CCC1=O [Compound 221, N-(5-(3-fluorobenzyl)thiazol-2-yl)-1-methyl-6-oxo-1,4,5,6-tetrahydropyridazine-3-carboxamide]	> 45 µM	> 45 µM
CN1N=C(c2nc3cc(Cc4cccc(Cl)c4)cnc3[nH]2)CCC1=O [Compound 255]	> 45 µM	
Cc1ccc(Cc2ccc(C(=O)Nc3ccc(=O)n(C)n3)nc2)cc1C [Compound 312]	1.82 µM	0.03 µM
CC1(C)CN(C(=O)c2cccc(Cc3ccc(F)cc3)n2)CCO1 [Compound 339]	> 45 µM	17.7 µM

Second part, the compound after the results:

IC50 (human SCD1)	IC50 (human SCD5)	SMILES
	0.17 µM	Cn1cc(C(=O)Nc2ccc(COc3cccc(Cl)c3)cn2)ccc1=O [Compound 263]
> 45 µM	> 45 µM	O=C(Nc1ccc(Cc2cccc(F)c2)cn1)c1cc[nH]c(=O)n1 [Compound 425]
> 45 µM	> 45 µM	O=C(Nc1ccc(Cc2cccc(F)c2)cn1)c1cnc2[nH]c(=O)oc2c1 [Compound 463]
3.1 µM	0.36 µM	Cn1cc(C(=O)Nc2ccc(Cc3ccc(F)c(F)c3)cn2)ncc1=O [Compound 673]

— patent publication US12180221B2, “Compounds and uses thereof” (JANSSEN PHARMACEUTICA NV, priority 2018, dated 2024)
